According to ChEMBL document CHEMBL5108087, “Synthesis and biological evaluation of paeoveitol D derivatives as new melatonin receptor agonists with antidepressant activities” (RSC Med Chem, 2022):

What was measured:
[1] = target: Melatonin receptor type 1A (Homo sapiens, UniProt P48039); assay: Agonist activity at human MT1 receptor expressed in HEK293 cells by Fluo-8 based calcium assay; format: functional, cell-based
[2] = target: T1, Melatonin receptor type 1B (Homo sapiens, UniProt P49286); assay: Agonist activity at human MT2 receptor expressed in HEK293 cells by Fluo-8 based calcium assay; format: functional, cell-based
T1 sequence (P49286 whole entry): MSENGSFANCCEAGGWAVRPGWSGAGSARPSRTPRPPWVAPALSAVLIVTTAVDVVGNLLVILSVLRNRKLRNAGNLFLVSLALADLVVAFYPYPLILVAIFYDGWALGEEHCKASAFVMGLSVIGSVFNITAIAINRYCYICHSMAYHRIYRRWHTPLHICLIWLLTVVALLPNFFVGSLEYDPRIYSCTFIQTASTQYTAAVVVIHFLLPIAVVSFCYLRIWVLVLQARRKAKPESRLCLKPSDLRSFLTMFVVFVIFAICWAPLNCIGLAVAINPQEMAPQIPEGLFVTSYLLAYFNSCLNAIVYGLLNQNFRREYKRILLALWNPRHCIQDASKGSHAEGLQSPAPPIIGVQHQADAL

Chain of Melatonin receptor type 1A (P48039 whole entry): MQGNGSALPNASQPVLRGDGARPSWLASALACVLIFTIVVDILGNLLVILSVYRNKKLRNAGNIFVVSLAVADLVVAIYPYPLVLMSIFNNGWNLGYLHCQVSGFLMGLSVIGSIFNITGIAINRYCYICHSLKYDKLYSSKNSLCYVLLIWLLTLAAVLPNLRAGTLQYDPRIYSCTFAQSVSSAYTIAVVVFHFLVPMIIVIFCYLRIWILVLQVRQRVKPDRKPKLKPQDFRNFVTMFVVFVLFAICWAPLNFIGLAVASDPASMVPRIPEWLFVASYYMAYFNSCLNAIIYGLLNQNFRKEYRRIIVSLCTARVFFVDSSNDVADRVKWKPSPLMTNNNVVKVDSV

SMILES | EC50 [1] | EC50 [2]
COc1cc2c(CN3CCCC3)coc2cc1C | 310 µM | 350 µM
COc1cc2c(CN3CCNCC3)coc2cc1C | 460 µM | 380 µM
